Measured values from US20230151003A1, “COMPOUNDS AND METHODS OF USE” (Exelixis, Inc., priority 2020, published 2023).

Key:
Type in all cases: cell-based
[1] = target: Met (Homo sapiens, UniProt P08581); test: Met autophosphorylation ELISA in PC-3 cells; parameters: endogenous in cells; host or cells: PC-3 prostate cancer cells (ATCC #CRL-1435); settings: Table 3 Cellular Activities, HGF-stimulated, phospho-Met ELISA, read-out: c-Met IC50
Description: PC-3 prostate cancer cells (ATCC #CRL-1435) were seeded at 4×10^4 cells/well onto 24-well plates (Greiner #662165), in DMEM (Thermo Fisher #11995-040) containing 10% FBS (Thermo Fisher #26140-079), 1% MEM NEAA (Thermo Fisher #11140-050), 1% GlutaMax (Thermo Fisher #35050-061), and 1% Penicillin Streptomycin (Thermo Fisher #15140-122). PC-3 cells were incubated at 37° C., 5% CO2 for 24 h and then starved for 3 h in serum-free medium. Test compounds were serially diluted to produce an 8-point dose curve in fresh serum-free medium to a final concentration of 0.3% DMSO (vehicle) and added to the cells and incubated for 1 h. Cells were then stimulated with 100 ng/mL recombinant human HGF (R&D Systems #294-HG-250) for 10 min, washed with cold PBS, and immediately lysed with 130 μL of cold 1× lysis buffer [20 mM Tris, 137 mM sodium chloride, 2 mM EDTA, 10% glycerol, 1% NP-40 alternative, 1 mM activated sodium orthovanadate, 1 mM PefaBloc SC (Sigma-Aldrich #11429868001), protease/phosphatase inhibitor tablet (Thermo Fisher #A32959)]. Lysates were clarified by centrifugation and 100 μL/well added into the PathScan phospho-Met (panTyr) Sandwich ELISA (Cell Signaling Technology #7333). Assay was performed according to manufacturer's instructions. Positive control wells (100% activity) contained HGF-stimulated, DMSO-treated cell lysates. Negative control wells (0% activity) contained HGF-stimulated, reference inhibitor-treated cell lysates. IC50 values were calculated by nonlinear regression analysis using a 4-parameter logistic curve fit in ActivityBase XE (IDBS).

[2] = target: KDR (Homo sapiens, UniProt P35968); test: KDR autophosphorylation ELISA in HUVEC cells; parameters: endogenous in cells; host or cells: HUVEC (Lonza #C2519A); settings: Table 3 Cellular Activities, VEGF165-stimulated, phospho-KDR ELISA
Description: Human umbilical vein endothelial cells or HUVEC (Lonza #C2519A) were seeded at 2×10^4 cells/well onto 96-well plates (Corning #3904), in EGM-2 growth medium (Lonza #CC-3162) containing 1% Penicillin Streptomycin (Thermo Fisher #15140-122). HUVEC cells were incubated at 37° C., 5% CO2 for 24 h and then starved for 24 h in serum-free EBM-2 basal medium (Lonza #CC-3156) containing 1% Penicillin Streptomycin. Test compounds were serially diluted to produce an 8-point dose curve in fresh serum-free medium to a final concentration of 0.3% DMSO (vehicle) and added to the cells and incubated for 1 h. Cells were then stimulated with 100 ng/mL recombinant human VEGF165 (R&D Systems #293-VE-500) for 5 min, washed with cold PBS, and immediately lysed with 130 μL of cold 1× lysis buffer [20 mM Tris, 137 mM sodium chloride, 2 mM EDTA, 10% glycerol, 1% NP-40 alternative, 1 mM activated sodium orthovanadate, 1 mM PefaBloc SC (Sigma-Aldrich #11429868001), protease/phosphatase inhibitor tablet (Thermo Fisher #A32959)]. Lysates were collected and 100 μL/well added into the human phospho-KDR DuoSet IC ELISA (R&D Systems #DYC1766-2). Assay was performed according to manufacturer's instructions and sample phospho-KDR concentrations were extrapolated using human phospho-KDR control (R&D Systems #841421) as a standard. Positive control wells (100% activity) contained VEGF165-stimulated, DMSO-treated cell lysates. Negative control wells (0% activity) contained non-stimulated cell lysates. IC50 values were calculated by nonlinear regression analysis using a 4-parameter logistic curve fit in ActivityBase XE (IDBS).

[3] = target: T1, Mer (Homo sapiens, UniProt Q12866); test: Mer autophosphorylation ELISA in transient transfected 293A cells; settings: Table 3 Cellular Activities; MERTK-transfected 293A cells, phospho-Mer ELISA
T1 construct: host or cells: 293A cells (Thermo Fisher #R70507)
T1 sequence (Q12866 21-999): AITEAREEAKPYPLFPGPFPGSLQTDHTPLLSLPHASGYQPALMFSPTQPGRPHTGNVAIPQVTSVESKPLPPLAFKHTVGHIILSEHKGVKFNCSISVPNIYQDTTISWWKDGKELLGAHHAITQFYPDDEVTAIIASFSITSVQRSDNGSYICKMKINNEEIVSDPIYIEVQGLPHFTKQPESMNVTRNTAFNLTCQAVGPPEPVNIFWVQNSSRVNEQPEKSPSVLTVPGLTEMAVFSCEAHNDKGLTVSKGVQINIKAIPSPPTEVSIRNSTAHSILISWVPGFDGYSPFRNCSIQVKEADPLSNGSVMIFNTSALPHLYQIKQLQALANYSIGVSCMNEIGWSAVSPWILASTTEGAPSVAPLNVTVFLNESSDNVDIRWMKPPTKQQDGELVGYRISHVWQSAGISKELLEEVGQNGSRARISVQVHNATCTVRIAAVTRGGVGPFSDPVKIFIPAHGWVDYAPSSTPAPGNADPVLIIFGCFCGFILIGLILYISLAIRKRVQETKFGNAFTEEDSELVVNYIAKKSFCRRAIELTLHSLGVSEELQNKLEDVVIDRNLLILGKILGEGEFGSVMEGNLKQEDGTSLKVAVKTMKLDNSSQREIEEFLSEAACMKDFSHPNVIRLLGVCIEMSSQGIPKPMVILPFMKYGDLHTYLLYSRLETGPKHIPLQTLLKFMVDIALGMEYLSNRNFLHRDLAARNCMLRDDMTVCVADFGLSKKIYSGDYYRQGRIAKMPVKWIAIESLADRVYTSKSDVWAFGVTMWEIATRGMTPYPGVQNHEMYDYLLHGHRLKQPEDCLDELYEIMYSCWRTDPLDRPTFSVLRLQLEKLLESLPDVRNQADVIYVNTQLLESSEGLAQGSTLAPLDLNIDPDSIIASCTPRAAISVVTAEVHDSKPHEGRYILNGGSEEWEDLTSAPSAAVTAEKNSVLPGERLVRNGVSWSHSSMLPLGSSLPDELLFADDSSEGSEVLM
Description: 293A cells (Thermo Fisher #R70507) were seeded at 1.5×10^6 cells/well onto 100 mm dish (Greiner #664169), in DMEM (Thermo Fisher #11995-040) containing 10% FBS (Thermo Fisher #26140-079), 1% MEM NEAA (Thermo Fisher #11140-050), 1% GlutaMax (Thermo Fisher #35050-061), and 1% Penicillin Streptomycin (Thermo Fisher #15140-122). 293A cells were incubated at 37° C., 5% CO2 for 24 h and then transfected with 6μg MERTK DNA (Genecopoeia #EX-Z8208-M02) using TransIT LT1 transfection reagent (Mirus-Bio #MIR2305). After 24 h incubation, the transfected 293A cells were seeded at 1×10^5 cells/well onto 96-well plates (Corning #3904) in DMEM growth medium overnight. Test compounds were serially diluted to produce an 8-point dose curve in fresh serum-free medium to a final concentration of 0.3% DMSO (vehicle) and added to the cells and incubated for 1 h. Cells were then immediately lysed with 150 μL of cold 1× lysis buffer […], 137 mM sodium chloride, 2 mM EDTA, 10% glycerol, 1% NP-40 alternative, 1 mM activated sodium orthovanadate, 1 mM PefaBloc SC (Sigma-Aldrich #11429868001), protease/phosphatase inhibitor tablet (Thermo Fisher #A32959)]. Lysates were clarified by centrifugation and 50 μL/well added into the human phospho-Mer DuoSet IC ELISA (R&D Systems #DYC2579-2). Assay was performed according to manufacturer's instructions and sample phospho-Mer concentrations were extrapolated using human phospho-Mer control (R&D Systems #841793) as a standard. Positive control wells (100% activity) contained DMSO-treated cell lysates. Negative control wells (0% activity) contained reference inhibitor-treated cell lysates. IC50 values were calculated by nonlinear regression analysis using a 4-parameter logistic curve fit in ActivityBase XE (IDBS).

Sequence of KDR (P35968 20-1356): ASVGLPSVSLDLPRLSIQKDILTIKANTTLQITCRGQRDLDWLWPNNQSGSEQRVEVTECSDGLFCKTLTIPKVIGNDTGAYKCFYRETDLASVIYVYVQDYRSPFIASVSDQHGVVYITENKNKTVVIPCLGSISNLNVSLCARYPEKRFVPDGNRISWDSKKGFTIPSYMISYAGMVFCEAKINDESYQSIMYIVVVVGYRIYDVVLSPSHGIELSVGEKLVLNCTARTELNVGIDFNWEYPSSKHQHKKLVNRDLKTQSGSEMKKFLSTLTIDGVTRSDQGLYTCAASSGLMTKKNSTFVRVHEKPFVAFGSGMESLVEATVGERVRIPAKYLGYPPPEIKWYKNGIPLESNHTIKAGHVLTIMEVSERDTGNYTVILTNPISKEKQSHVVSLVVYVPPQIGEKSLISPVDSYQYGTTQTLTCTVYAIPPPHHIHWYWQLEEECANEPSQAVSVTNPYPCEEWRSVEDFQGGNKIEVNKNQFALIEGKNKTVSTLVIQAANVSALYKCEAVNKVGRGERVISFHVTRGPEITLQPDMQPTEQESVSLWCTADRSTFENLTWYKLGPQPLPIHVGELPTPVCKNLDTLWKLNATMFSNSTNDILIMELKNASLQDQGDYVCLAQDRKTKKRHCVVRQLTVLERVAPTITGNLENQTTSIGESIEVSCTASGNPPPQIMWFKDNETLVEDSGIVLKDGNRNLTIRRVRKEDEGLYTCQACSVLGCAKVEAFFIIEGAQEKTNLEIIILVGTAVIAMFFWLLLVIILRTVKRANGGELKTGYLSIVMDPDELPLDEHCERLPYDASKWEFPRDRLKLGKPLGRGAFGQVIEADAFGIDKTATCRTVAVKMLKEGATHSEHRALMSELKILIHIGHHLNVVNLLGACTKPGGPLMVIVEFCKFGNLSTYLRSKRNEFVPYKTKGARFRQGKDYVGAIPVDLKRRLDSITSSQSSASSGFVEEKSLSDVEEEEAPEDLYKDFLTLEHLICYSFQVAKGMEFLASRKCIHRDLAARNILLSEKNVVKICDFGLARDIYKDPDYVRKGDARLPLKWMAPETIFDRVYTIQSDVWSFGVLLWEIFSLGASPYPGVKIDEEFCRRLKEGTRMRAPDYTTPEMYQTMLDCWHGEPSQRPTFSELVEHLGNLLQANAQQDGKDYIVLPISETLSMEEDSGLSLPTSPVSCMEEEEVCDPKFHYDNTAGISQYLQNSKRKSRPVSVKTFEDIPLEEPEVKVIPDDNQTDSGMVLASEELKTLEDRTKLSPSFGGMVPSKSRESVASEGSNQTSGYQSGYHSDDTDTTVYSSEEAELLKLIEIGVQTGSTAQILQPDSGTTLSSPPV
Sequence of Met (P08581 25-1390): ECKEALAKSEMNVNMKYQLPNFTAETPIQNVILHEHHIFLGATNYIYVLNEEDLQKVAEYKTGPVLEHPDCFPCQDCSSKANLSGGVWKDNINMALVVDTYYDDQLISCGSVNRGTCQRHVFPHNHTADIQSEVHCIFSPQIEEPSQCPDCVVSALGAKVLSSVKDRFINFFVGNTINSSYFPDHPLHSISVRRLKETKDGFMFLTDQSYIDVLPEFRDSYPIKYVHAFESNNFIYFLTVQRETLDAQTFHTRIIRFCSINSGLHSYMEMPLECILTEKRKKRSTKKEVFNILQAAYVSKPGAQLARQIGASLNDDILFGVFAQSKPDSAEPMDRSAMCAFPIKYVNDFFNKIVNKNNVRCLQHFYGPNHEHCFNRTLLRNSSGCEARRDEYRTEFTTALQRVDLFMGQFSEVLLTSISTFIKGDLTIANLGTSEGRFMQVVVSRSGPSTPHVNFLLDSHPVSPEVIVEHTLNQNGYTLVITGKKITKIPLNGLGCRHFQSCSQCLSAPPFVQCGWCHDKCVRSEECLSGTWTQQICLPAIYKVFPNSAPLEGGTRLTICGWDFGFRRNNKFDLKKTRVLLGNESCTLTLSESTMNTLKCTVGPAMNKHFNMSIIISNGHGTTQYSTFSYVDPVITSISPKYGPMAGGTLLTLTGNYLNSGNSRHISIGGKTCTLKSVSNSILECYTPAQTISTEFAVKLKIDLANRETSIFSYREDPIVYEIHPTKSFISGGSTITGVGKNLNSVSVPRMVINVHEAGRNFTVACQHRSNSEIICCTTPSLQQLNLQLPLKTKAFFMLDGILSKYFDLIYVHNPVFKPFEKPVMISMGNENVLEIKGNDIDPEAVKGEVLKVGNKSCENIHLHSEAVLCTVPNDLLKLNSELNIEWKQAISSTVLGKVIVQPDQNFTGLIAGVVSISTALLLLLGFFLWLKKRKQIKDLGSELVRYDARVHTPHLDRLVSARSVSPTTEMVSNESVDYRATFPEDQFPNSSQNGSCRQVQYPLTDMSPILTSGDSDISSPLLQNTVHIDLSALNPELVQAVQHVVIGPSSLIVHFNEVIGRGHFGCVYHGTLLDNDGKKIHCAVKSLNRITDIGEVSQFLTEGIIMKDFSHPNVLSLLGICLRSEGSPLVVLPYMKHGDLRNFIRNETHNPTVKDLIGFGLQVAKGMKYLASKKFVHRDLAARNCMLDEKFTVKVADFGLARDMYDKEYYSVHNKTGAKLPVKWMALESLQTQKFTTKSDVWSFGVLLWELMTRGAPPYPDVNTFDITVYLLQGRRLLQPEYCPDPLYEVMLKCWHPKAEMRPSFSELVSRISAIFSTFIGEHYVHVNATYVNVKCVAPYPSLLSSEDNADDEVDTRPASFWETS

| IC50 [1] | IC50 [2] | IC50 [3] | SMILES |
| --- | --- | --- | --- |
| ≤ 100 nM | ≤ 100 nM | ≤ 100 nM | COCc1nc(C)c(-c2ncccc2C)c(O)c1C(=O)Nc1ccc(Oc2ccnc3cc(OC)c(OC)nc23)c(F)c1 [Compound 196, N-[4-[(6,7-Dimethoxy-1,5-naphthyridin-4-yl)oxy]-3-fluorophenyl]-4-hydroxy-2-(methoxymethyl)-6-methyl-5-(3-methylpyridin-2-yl)pyridine-3-carboxamide] |
| ≤ 100 nM | 300 to 1000 nM | ≤ 100 nM | COc1cc2nccc(Oc3ccc(NC(=O)c4c(C)n(CC(F)F)cc(-c5ccco5)c4=O)cc3F)c2nc1OC [Compound 275, 1-(2,2-Difluoroethyl)-N-[4-[(6,7-dimethoxy-1,5-naphthyridin-4-yl)oxy]-3-fluorophenyl]-5-(furan-2-yl)-2-methyl-4-oxopyridine-3-carboxamide] |
| ≤ 100 nM | ≤ 100 nM | ≤ 100 nM | CCc1c(C(=O)Nc2ccc(Oc3ccnc4cc(OCCOC)c(OC)nc34)c(F)c2)c(=O)c(-c2ccco2)c(C)n1C [Compound 326, 2-Ethyl-N-[3-fluoro-4-[[6-methoxy-7-(2-methoxyethoxy)-1,5-naphthyridin-4-yl]oxy]phenyl]-5-(furan-2-yl)-1,6-dimethyl-4-oxopyridine-3-carboxamide] |
| ≤ 100 nM | ≤ 100 nM | ≤ 100 nM | COCc1nc(C)c(-c2ccnc(C)c2)c(O)c1C(=O)Nc1ccc(Oc2ccnc3cc(OC)c(OC)nc23)c(F)c1 [Compound 198, N-[4-[(6,7-Dimethoxy-1,5-naphthyridin-4-yl)oxy]-3-fluorophenyl]-4-hydroxy-2-(methoxymethyl)-6-methyl-5-(2-methylpyridin-4-yl)pyridine-3-carboxamide] |
| ≤ 100 nM | ≤ 100 nM | ≤ 100 nM | COc1cc2nccc(Oc3ccc(NC(=O)c4c(C)ncc(-c5ccoc5)c4O)cc3F)c2nc1OC [Compound 122, N-[4-[(6,7-Dimethoxy-1,5-naphthyridin-4-yl)oxy]-3-fluorophenyl]-5-(furan-3-yl)-4-hydroxy-2-methylpyridine-3-carboxamide] |
